Structures can show the parent of a compound that is named as a salt.
How the values were obtained:
anti-thyroxine [1] = assay: Velocity of the reaction between F-thyroxine and anti-thyroxine in the presence of BSA (Examples 8-16); type: binding; conditions: BSA 0.1 μM, increasing additive concentrations
Procedure: (§1) The buffer and stock solutions described in Example 1 and the measurement methodology described in Example 2 were used.
• Fluorescein-Thyroxine, 1 nM • Anti-Thyroxine (1:300) • PBS with 5% 2-propanol • BSA 0.1 μM • Sodium benzoate in different concentrations
• Fluorescein-Thyroxine, 1 nM • Anti-Thyroxine (1:300) • PBS with 5% 2-propanol • BSA 0.1 μM • Sodium p-toluene sulfonate in different concentrations
• Fluorescein-Thyroxine, 1 nM • Anti-Thyroxine (1:300) • PBS with 4.75% 2-propanol • BSA 0.1 μM • Potassium benzoate in different concentrations
• Fluorescein-Thyroxine, 1 nM • Anti-Thyroxine (1:300) • PBS with 4.75% 2-propanol • BSA 0.1 μM • Sodium chloroacetate in different concentrations
• Fluorescein-Thyroxine, 1 nM • Anti-Thyroxine (1:300) • PBS with 4.75% 2-propanol • BSA 0.1 μM • Sodium dichloroacetate in different concentrations
[…]. The buffer and stock solutions described in Example 1 and the measurement methodology described in Example 2 were used.
• Fluorescein-Thyroxine, 1.5 nM • Anti-Thyroxine (1:300) • PBS with 4.75% 2-propanol • BSA 0.1 μM • Sodium Salicylate in different concentrations
• Fluorescein-Thyroxine, 1.5 nM • Anti-Thyroxine (1:300) • PBS with 4.75% 2-propanol • BSA 0.1 μM • N-Hydroxysuccinimide in different concentrations
• Fluorescein-Thyroxine, 1.5 nM • Anti-Thyroxine (1:300) • PBS with 4.75% 2-propanol • BSA 0.1 μM • Sodium Chloride in different concentrations

anti-thyroxine [2] = assay: Rate of the reaction between F-thyroxine and anti-thyroxine, with and without serum (Example 6); type: binding; conditions: experiments 6-3 through 6-7: serum, increasing sodium benzoate up to 1.0 M
Procedure: as §1
(§2) • Fluorescein-Thyroxine (1 nM) • Anti-Thyroxine (1:300 dilution) • PBS with 10% 2-propanol • Benzoate in different concentrations • At t=0 s antibody was pipetted into the cuvette. • A 3 ml cuvette was used, the total volume in the cuvette was 2 ml. A small magnetic stirrer was used for mixing
(§3) In example 6, the reactions between F-Thyroxine and Anti-Thyroxine, which were carried out in the presence of serum under different reaction conditions, are compared (FIG. 4). There are seven different amounts of sodium benzoate, between 0 and 1.0 Molar in the cuvette. The reaction was performed in a phosphate buffered saline buffer containing 10% 2-propanol. The table in FIG. 4 lists the two important parameters.

anti-thyroxine [3] = assay: Velocity of the reaction between Rhodamine-Thyroxine and anti-thyroxine in serum (Example 17); type: binding; conditions: Rox-Thyroxine 1.5 nM, serum 1:500, PBS with 10% 2-propanol, increasing sodium benzoate
Procedure: (§4) The serum was diluted 1:500 in PBS/10% 2-propanol The buffer and stock solutions, as well as the measurement methodology described in Example 5 were used.
(§5) • Rox-Thyroxine, 1.5 nM • Anti-Thyroxine (1:300) • PBS with 10% 2-propanol • Serum 1:500 • Sodium benzoate in different concentrations

serum components [4] = assay: Non-specific binding of Rhodamine-Thyroxine to serum components (Example 17); conditions: Rox-Thyroxine 1.5 nM, serum 1:500, PBS with 10% 2-propanol, sodium benzoate in different concentrations
Procedure: as §4, §5

serum components [5] = assay: Initial non-specific binding between F-thyroxine and serum components (Example 6); conditions: experiments 6-3 through 6-7: serum, increasing sodium benzoate up to 1.0 M; reduced from 195
Procedure: as §1, §2, §3

anti-thyroxine [6] = assay: Velocity of the reaction between F-thyroxine and anti-thyroxine in the absence of non-specific binding components (Example 7); conditions: sodium benzoate increased to 1.0 molar; no serum or BSA; PBS with 5% 2-propanol, F-thyroxine 1 nM
Procedure: as §1
• Fluorescein-thyroxine, 1 nM • Anti-Thyroxine (1:300) • PBS with 5% 2-propanol • Sodium Benzoate in different concentrations

human sera = assay: Effect of additive on non-specific binding of F-thyroxine in human sera (Example 4); conditions: Buffer 2 (1.0 M sodium benzoate), 50 μl human sera
Procedure: (§6) With reference to FIG. 2, experiments were performed to determine the effects of an additive on specific and non-specific binding. The additive used in the present example was sodium benzoate. The materials described in Example 1 and the measurement methodology described in Example 2 were used. In particular, 50 μl of human sera was added to 3000 μl of Buffer 2 or PBS at pH 7.5 (no additive control) and thoroughly mixed by pipetting for 1 to 10 seconds. To this was added 0 μl of unlabeled thyroxine and 0 μl, 20 μl or 50 μl of anti-sera stock solution. The mixture was thoroughly mixed by pipetting for 1 to 10 seconds. Then, 5 μl of the fluorescein-labeled thyroxine stock solution was added. This was followed by mixing for 1 to 10 seconds by pipetting. Then, d(V−H)/dt measurements were made versus time for between 10 and 600 seconds. This protocol was followed for Experiments 6-9 in Table 2.

anti-thyroxine sera = assay: Effect of additive on specific binding of F-thyroxine to anti-thyroxine in the presence of human sera (Example 4); conditions: Buffer 2 (1.0 M sodium benzoate), 50 μl human sera, 20 or 50 μl anti-sera
Procedure: as §6

anti-thyroxine [7] = assay: Kinetic curve, rhodamine-labeled thyroxine/anti-thyroxine system in 0.5 M sodium benzoate with 5% isopropanol (Example 5); type: binding
Procedure: The protocol used is described below. The additive was sodium benzoate combined with an organic solvent (5% isopropanol). • 1. Use clean glassware, washed with isopropanol. • 2. Make a 0.5 M solution of sodium benzoate. • 3. Make a solution of 5% isopropanol in 0.5 M sodium benzoate (i.e., 2.5 ml 2-propanol in 47.5 mL 0.5 M aqueous sodium benzoate). This will be named BUFFER. • 4. […] 600 μl Buffer added to 1 mL curvette. The absorbance spectrum is measured using a UV-VIS spectrophotometer, 400 nm to 800 nm. This spectrum is used to define the absorbance of the background as zero and to control that it is actually zero. • 6. […] Measure the absorbance UV-VIS, 400 nm to 800 nm. […] Using a rotating polarometer with a 75 watt Xenon short-arc lamp. The rotating polarizer has three channels: Polarization (P), Total Intensity (V+H), and V−H. • 8. […] Measure P, V+H and V−H after short mixing and 30 second equilibration. […] Add 10 μl. Antibody solution (anti-thyroxine in PBS, dilution unknown, probably 5 mg in 1000 μl PBS and further diluted 1:10 in PBS). New volume is 3017 μl. Measure P, V+H and V−H after short mixing.

[8] = test system: polyclonal anti-thyroxine sera; assay: Fluorescence polarization kinetic measurement, F-thyroxine/anti-thyroxine system (Example 3); type: binding; conditions: Experiment 5: unlabeled thyroxine 0-20 μl, antiserum 20 μl, Buffer 1 (0.5 M sodium benzoate)
Procedure: An initial stock solution of anti-thyroxine sera was prepared. In particular, 1 ml of polyclonal anti-thyroxine sera containing 10 mg/ml IgG (Sigma) was diluted 1:5 in PBS buffer, pH 7.5. The final concentration of IgG in the stock solution was about 2 mg/ml.
An initial stock solution of fluorescein-labeled analyte (F-thyroxine) was prepared. Fluorescein-labeled thyroxine at 1248 g/mol in a lyophilized form was obtained from emp Biotech GmbH. First, 5 mg (4×10^−6 moles) of F-thyroxine was diluted to 10 ml in PBS to get a 4.1×10^−4 M solution of F-thyroxine. This solution was then further diluted 100-fold in PBS. The final concentration of F-thyroxine in the stock solution was about 4.1×10^−6 M.
The following is a protocol useful for performing a fluorescein polarization assay of the present invention. All steps are performed at ambient temperature. […] Pipette the mixture formed in step 5 up and down for 1 to 10 seconds and begin measuring polarization (P), Polarized Fluorescence Intensity Difference (V−H) or quenching (V+H total intensity) versus time for between 10 and 7200 seconds after end of mixing in a direct readout polarometer or between 0.1 and 7200 seconds after end of mixing with a stopped-flow polarometer. • 7. […] Against a standard curve, an unknown amount of thyroxine can be measured by comparison of initial rate measurement (speed of reaction) of unknown with the standard curve. […]

[9] = PBS with 4.75% 2-propanol, F-thyroxine 1.5 nM
[10] = PBS with 5% 2-propanol, F-thyroxine 1 nM
[11] = PBS with 4.75% 2-propanol, F-thyroxine 1 nM

How did the “rate of the antibody reaction” value (anti-thyroxine [1]; [9]) turn out when `O=C1CCC(=O)N1O` [N-hydroxysuccinimide] was run?
The value was “substantially slowed”.

How did the “reaction rate relative to its value at zero additive” value (anti-thyroxine [2]) turn out when `O=C([O-])c1ccccc1.[Na+]` [sodium benzoate] was run?
Its value is “about 30%”.

What about the “rate of change of P at t=5 s” value (anti-thyroxine [2]; PBS with 10% 2-propanol) of the same compound?
Its value is 3.2 mP/s.

And the “rate of the reaction” value (anti-thyroxine [3])?
Its value is “substantially slowed”.

What about the “non-specific binding due to the presence of serum components” value (serum components [4]) of the same compound?
The value was “substantially reduced”.

And the “rate of the antibody reaction” value (anti-thyroxine [1]; [10])?
The value was “substantially slowed”.

What about the “polarization value before the addition of antibody (t=0)” value (serum components [5]) of the same compound?
Its value is 100 mP.

And the “reaction rate between F-thyroxine and antibody” value (anti-thyroxine [6])?
The value was “slowed dramatically”.

And the “effect on non-specific binding” value (human sera)?
The value was “inhibits non-specific binding”.

And the “effect on specific binding” value (anti-thyroxine sera)?
The value was “does not inhibit specific binding”.

Which “rate of the antibody reaction” value (anti-thyroxine [1]; [10]) does the source give for `N=C(N)N` [guanidine hydrochloride] here?
Its value is “substantially slowed”.

Which “rate of the antibody reaction” value (anti-thyroxine [1]; [11]) does the source give for `O=C([O-])C(Cl)Cl.[Na+]` [sodium dichloroacetate] here?
Its value is “substantially slowed”.

How did the “values of P, V−H and V+H over the 600 second time course” value (anti-thyroxine [7]; 0.5 M sodium benzoate, 5% isopropanol) turn out when “5-carboxy-X-rhodamine-thyroxine [ROX-T4]” was run?
The value was “increase”.

And the “V − H” value (anti-thyroxine [7]; 10 s after antibody)?
Its value is 660.

What about the “V − H” value (anti-thyroxine [7]; 13 s after antibody) of the same compound?
Its value is 860.

What about the “V − H” value (anti-thyroxine [7]; 18 s after antibody) of the same compound?
Its value is 936.

What about the “V − H” value (anti-thyroxine [7]; 20 s after antibody) of the same compound?
Its value is 1006.

And the “V − H” value (anti-thyroxine [7]; 26 s after antibody)?
Its value is 1130.

What about the “V − H” value (anti-thyroxine [7]; 30 s after antibody) of the same compound?
The value was 1175.

What about the “V − H” value (anti-thyroxine [7]; 33 s after antibody) of the same compound?
Its value is 1200.

And the “V − H” value (anti-thyroxine [7]; 44 s after antibody)?
The value was 1259.

What about the “V − H” value (anti-thyroxine [7]; 49 s after antibody) of the same compound?
Its value is 1280.

What about the “V − H” value (anti-thyroxine [7]; 53 s after antibody) of the same compound?
Its value is 1290.

And the “P (mP)” value (anti-thyroxine [7]; 62 s after antibody)?
Its value is 392 mP.

And the “P (mP)” value (anti-thyroxine [7]; 70 s after antibody)?
Its value is 395 mP.

What about the “V − H” value (anti-thyroxine [7]; 78 s after antibody) of the same compound?
Its value is 1345.

What about the “V + H” value (anti-thyroxine [7]; 83 s after antibody) of the same compound?
The value was 3375.

What about the “P (mP)” value (anti-thyroxine [7]; 95 s after antibody) of the same compound?
The value was 397 mP.

What about the “P (mP)” value (anti-thyroxine [7]; 600 s after antibody) of the same compound?
Its value is 398 mP.

And the “V + H” value (anti-thyroxine [7]; 600 s after antibody)?
The value was 3320.

What about the “V − H” value (anti-thyroxine [7]; 600 s after antibody) of the same compound?
Its value is 1340.

What about the “P (mP)” value (anti-thyroxine [7]; before antibody, time 0 s) of the same compound?
Its value is 75 mP.

And the “V + H” value (anti-thyroxine [7]; before antibody, time 0 s)?
Its value is 2291.

What about the “V − H” value (anti-thyroxine [7]; before antibody, time 0 s) of the same compound?
The value was 178.

Which “rate of the antibody reaction” value (anti-thyroxine [1]; [10]) does the source give for `Cc1ccc(S(=O)(=O)O)cc1.[Na]` [sodium p-tolulene sulfonate, sodium p-toluene sulfonate] here?
Its value is “substantially slowed”.

Which “rate of the antibody reaction” value (anti-thyroxine [1]; [9]) does the source give for `O=C([O-])c1ccccc1O.[Na+]` [sodium salicylate] here?
Its value is “substantially slowed”.

Which “rate of the antibody reaction” value (anti-thyroxine [1]; [11]) does the source give for `O=C([O-])c1ccccc1.[K+]` [potassium benzoate] here?
The value was “substantially slowed”.

How did the “rate of the antibody reaction” value (anti-thyroxine [1]; [9]) turn out when `[Cl-].[Na+]` [sodium chloride] was run?
Its value is “not substantially slowed”.

Which “competitive inhibition of the binding of F-thyroxine to its specific antibody” value [8] does the source give for `N[C@@H](Cc1cc(I)c(Oc2cc(I)c(O)c(I)c2)c(I)c1)C(=O)O` [thyroxine] here?
Its value is “inhibition of the binding of F-thyroxine to its specific antibody by unlabeled thyroxine occurred”.

How did the “rate of the antibody reaction” value (anti-thyroxine [1]; [11]) turn out when `O=C([O-])CCl.[Na+]` [sodium chloroacetate] was run?
Its value is “substantially slowed”.
